From patent publication US20230365589A1, “NOVEL AMINE DERIVATIVES” (Sumitomo Pharma Co., Ltd., priority 2020, published 2023)

Legend:
Format in all cases: biochemical
DYRK1A = target: T1, DYRK1A (Homo sapiens, UniProt Q13627); test: Inhibition test on activity of DYRK family, mobility shift assay (MSA): DYRK1A; details: MSA, FITC-labeled DYRKtide peptide, ATP 100 μM; read-out: Inhibitory activity DYRK 1A (IC50 class)
T1 construct: purchased Carna Biosciences, Inc. 04-130
How it was run: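 Mobility shift assay with recombinant DYRK1A (0.2 ng/μL enzyme solution), FITC-DYRKtide substrate (4 μM in substrate mix), 100 μM ATP in substrate mix, HEPES pH 7.5 buffer with MgCl2; 1 h at room temperature. Phosphorylated vs unphosphorylated peptide peaks quantified; IC50 from regression of inhibition rate against log concentration.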

DYRK1B = target: T2, DYRK1B (Homo sapiens, UniProt Q9Y463); test: Inhibition test on activity of DYRK family, mobility shift assay (MSA): DYRK1B; details: MSA, FITC-labeled DYRKtide peptide, ATP 200 μM; read-out: Inhibitory activity DYRK 1B (IC50 class)
T2 construct: purchased Carna Biosciences, Inc. 04-131
T2 sequence (Q9Y463 whole entry): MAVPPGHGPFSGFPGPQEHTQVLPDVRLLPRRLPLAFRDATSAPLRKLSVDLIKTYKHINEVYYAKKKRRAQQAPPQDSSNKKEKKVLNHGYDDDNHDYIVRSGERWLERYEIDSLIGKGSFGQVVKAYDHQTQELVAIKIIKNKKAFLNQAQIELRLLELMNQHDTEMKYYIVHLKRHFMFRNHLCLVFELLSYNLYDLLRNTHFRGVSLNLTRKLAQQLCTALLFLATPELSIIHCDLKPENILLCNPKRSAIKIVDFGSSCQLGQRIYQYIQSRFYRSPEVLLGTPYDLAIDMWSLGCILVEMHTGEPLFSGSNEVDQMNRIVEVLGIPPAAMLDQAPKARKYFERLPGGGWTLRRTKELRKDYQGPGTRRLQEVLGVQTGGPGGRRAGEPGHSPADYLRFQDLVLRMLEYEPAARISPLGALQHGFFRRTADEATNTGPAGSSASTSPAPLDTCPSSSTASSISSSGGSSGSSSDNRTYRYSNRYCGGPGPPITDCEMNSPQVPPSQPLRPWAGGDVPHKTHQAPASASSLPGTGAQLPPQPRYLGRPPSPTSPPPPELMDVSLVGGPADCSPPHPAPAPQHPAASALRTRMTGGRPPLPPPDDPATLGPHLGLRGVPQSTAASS
Experimental: [Inhibition Test on Activity of DYRK Family (DYRK1A, DYRK1B, DYRK2, and DYRK3)]
The kinase activity was measured by mobility shift assay (MSA) method using QuickScout Screening Assist™ MSA (commercially available kit manufactured by Carna Biosciences, Inc.). The substrate of the kinase reaction used was an FITC-labeled DYRKtide peptide included in the kit. An assay buffer [20 mM HEPES, 0.01% Triton X-100™, 2 mM dithiothreitol, pH 7.5]was used to create a substrate mixture solution with a substrate (4 μM), MgCl2(20 mM), and ATP (DYRK1A: 100 μM; DYRK1B: 200 μM; DYRK2: 40 μM; and DYRK3: 20 μM). In addition, kinases (DYRK1A: manufactured by Carna Biosciences, Inc., Cat. No. 04-130; DYRK1B: manufactured by Carna Biosciences, Inc., Cat. No. 04-131; DYRK2; manufactured by Carna Biosciences, Inc., Cat. No. 04-132; and DYRK3; manufactured by Carna Biosciences, Inc., Cat. No. 04-133) were diluted with the assay buffer to prepare enzyme solutions (DYRK1A: 0.2 ng/μL; DYRK1B: 0.08 ng/μL; DYRK2: 0.04 ng/μL; and DYRK3: 0.25 ng/μL). The 10 mM solution of the test compound in DMSO was further diluted with DMSO to 10 levels of the concentration (0.00003 mM, 0.0001 mM, 0.0003 mM, 0.001 mM, 0.003 mM, 0.01 mM, 0.03 mM, 0.1 mM, 0.3 mM, and 1 mM), each of which was subjected to 25-fold dilution with the assay buffer to obtain a drug solution (4% DMSO solution). 5 μL of the drug solution or a control solution (4% DMSO-assay buffer), 5 μL of the substrate mixture solution, and 10 μL of the enzyme solution were mixed in the wells of a polypropylene 384-well plate and allowed to react at room temperature for 1 hour, and then the reaction was quenched by adding 60 μL of the termination buffer included in the kit. Subsequently, the quantities of the substrates (S) and the phosphorylated substrate (P) in the reaction solution were measured using LabChip EZ Reader II system (manufactured by Caliper Life Sciences) according to the protocol of the assay kit.
The heights of the peaks of the “substrate” and the “phosphorylated substrate” were expressed as S and P, respectively, and a blank containing the assay buffer instead of the enzyme solution was also measured.
The inhibition rate (%) of the test compound was calculated according to the following equation:
Inhibition rate (%)=(1−(C−A)/(B−A))×100 • wherein, A, B, and C represent P/(P+S) of the blank well, P/(P+S) of the control solution well, and P/(P+S) of the compound-containing well, respectively.
The IC50 value was calculated via a regression analysis of the inhibition rate and the test compound concentration (logarithmic value).
The inhibiting activities of representative compounds of the present invention are shown against DYRK1A, DYRK1B, DYRK2, and DYRK3 in Tables.

DYRK2 = target: T3, DYRK2 (Homo sapiens, UniProt Q92630); test: Inhibition test on activity of DYRK family, mobility shift assay (MSA): DYRK2; details: MSA, FITC-labeled DYRKtide peptide, ATP 40 μM; read-out: Inhibitory activity DYRK 2 (IC50 class)
T3 construct: purchased Carna Biosciences, Inc. 04-132
T3 sequence (Q92630 74-601 limits assumed): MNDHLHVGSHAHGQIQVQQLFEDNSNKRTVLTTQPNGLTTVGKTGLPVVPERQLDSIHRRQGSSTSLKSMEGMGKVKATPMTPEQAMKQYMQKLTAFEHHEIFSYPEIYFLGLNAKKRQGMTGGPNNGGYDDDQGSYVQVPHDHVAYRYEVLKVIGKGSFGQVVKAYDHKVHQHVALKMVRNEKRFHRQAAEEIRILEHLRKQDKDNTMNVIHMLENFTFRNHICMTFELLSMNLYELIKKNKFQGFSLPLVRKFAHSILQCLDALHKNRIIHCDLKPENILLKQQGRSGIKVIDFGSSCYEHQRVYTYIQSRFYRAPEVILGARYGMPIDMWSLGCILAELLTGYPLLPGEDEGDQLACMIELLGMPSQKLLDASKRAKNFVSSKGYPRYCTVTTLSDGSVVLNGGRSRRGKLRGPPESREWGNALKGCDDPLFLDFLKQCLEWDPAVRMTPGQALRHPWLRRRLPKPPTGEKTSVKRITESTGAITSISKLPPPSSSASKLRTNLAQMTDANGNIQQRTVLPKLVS
How it was run: (§1)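 Mobility-shift readout of FITC-DYRKtide phosphorylation in 20 mM HEPES pH 7.5. The substrate mix held 4 µM peptide, 20 mM MgCl2 and ATP at 100 (1A), 200 (1B), 40 (2) or 20 µM (3). Reaction 1 h at room temperature; IC50 from regression of P/(P+S)-based inhibition vs log concentration.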

DYRK3 = target: T4, DYRK3 (Homo sapiens, UniProt O43781); test: Inhibition test on activity of DYRK family, mobility shift assay (MSA): DYRK3; details: MSA, FITC-labeled DYRKtide peptide, ATP 20 μM; read-out: Inhibitory activity DYRK 3 (IC50 class)
T4 construct: purchased Carna Biosciences, Inc. 04-133
T4 sequence (O43781 1-568 isoform O43781-2): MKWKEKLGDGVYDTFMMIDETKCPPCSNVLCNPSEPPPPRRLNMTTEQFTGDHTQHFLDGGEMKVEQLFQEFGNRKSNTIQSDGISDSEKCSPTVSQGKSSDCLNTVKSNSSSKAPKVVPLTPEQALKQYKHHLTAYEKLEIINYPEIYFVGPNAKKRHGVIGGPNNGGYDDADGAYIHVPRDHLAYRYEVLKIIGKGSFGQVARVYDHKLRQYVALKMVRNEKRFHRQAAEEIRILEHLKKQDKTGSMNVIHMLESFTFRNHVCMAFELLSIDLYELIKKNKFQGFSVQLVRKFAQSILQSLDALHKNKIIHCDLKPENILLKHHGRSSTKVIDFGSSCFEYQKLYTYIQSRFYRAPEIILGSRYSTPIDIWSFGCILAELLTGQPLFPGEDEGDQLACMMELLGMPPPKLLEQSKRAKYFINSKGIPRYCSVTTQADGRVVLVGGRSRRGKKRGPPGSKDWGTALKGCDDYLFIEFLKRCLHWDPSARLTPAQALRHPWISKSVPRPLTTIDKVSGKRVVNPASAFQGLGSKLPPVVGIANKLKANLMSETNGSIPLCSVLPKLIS
How it was run: as §1

IC50 (DYRK1A): 10 to 100 nM
IC50 (DYRK1B): 10 to 100 nM
IC50 (DYRK2): ≥ 1000 nM
IC50 (DYRK3): ≥ 1000 nM
Structure (SMILES): COCCN1CC[C@@H]2NC(=O)N(c3nc4c5c(ccc4s3)OCC5)[C@@H]2C1 (relative stereo) [Example 8, cis-3-(7,8-Dihydrofuro[3,2-e][1,3]benzothiazol-2-yl)-5-(2-methoxyethyl)octahydro-2H-imidazo[4,5-c]pyridin-2-one]
